Test results published in patent US5219825A, “Synergistic herbicidal compositions comprising herbicides which generate toxic oxygen radicals and chelating agents which inhibit their detoxification” (Yeda Research and Development Co., Ltd., priority 1986, dated 1993).

Key:
[1] = system: isolated Asparagus sprengeri cells; test: Chlorophyll loss in isolated cells (synergism at the cellular level); assay type: cell-based; settings: for chlorophyll remaining - % of control: paraquat 0 μM, 14 h, 1000 μEin m^-2 s^-1; for % of control chlorophyll: DDC 0.02% where added, 40 h, low light 305 μEin m^-2 s^-1
Experimental: Isolated cells offer an excellent rapid method of screening for phytotoxicity using a large number of potential chelators and synergists. Asparagus sprengeri cells were isolated from cladophylls of field grown plants using the procedure of Colman et al. (Can. J. Botany 57 1505, (1979)) except that the isolation, washing and culture buffer was 50 mM HEPES brought to pH 7.2 with KOH. The cladophylls were surface sterilized using 80% aqueous ethanol. After three centrifugations to remove broken cells, the cells were diluted to 10% packed volume and 0.75 ml were placed in each well of cluster dishes. The potential synergists in this example 0.02% w/v final concentration diethyldithiocarbamate (DDC) and an oxime of 4-octyl-2-acetyl-phenol (U.S. Pat. No. 4,215,219) which complex primarily with copper and di-2-ethylhexyl-phosphoric acid which complexes primarily with zinc (Flett, Chem and Ind. 17 706, (1977)) was placed with the herbicides atrazine and paraquat. All additions were made at 100 fold the final concentration of herbicide and synergist. Paraquat was dissolved in water and atrazine in methanol. The cluster dishes were incubated on a reciprocal shaker with a clear plastic bottom and illuminated from top and bottom with fluorescent lights emitting 135 μEin.m^-2 s^-1 (top) and 170 μEin.m^-2 s^-1 (bottom). The cells were kept mixed by the shaker and incubation was at room temperature. Incubation was stopped when there was visually obvious loss of chlorophyll due to treatments in a given experiment. The cells were removed to glass centrifugation tubes, centrifuged and the supernatant removed. One ml of 80% aqueous acetone was added to extract chlorophyll, the debris were sedimented by centrifugation and chlorophyll was spectrophotometrically determined at 645 and 663 nm according to Arnon (Plant Physiology 24 1, (1949)). […] In another experiment, a larger variety of chelating synergists and oxidant generating herbicides were used, and light was given at a much higher intensity 1000 μEin m^-2 s^-1 to better approach natural sunlight which is at 1200-1500 […].
Paraquat toxicity was measured 24 h after treatment and atrazine toxicity was measured 40 h after treatment.
Paraquat toxicity was measured 14 h after treatment.

[2] = system: Conyza bonariensis paraquat sensitive biotype; test: Phytotoxicity measured as 14CO2 fixation 24 h after spraying; assay type: in vivo; settings: sensitive biotype
Experimental: (§1) Seeds of two biotypes of Conyza bonariensis (L.) Cronq. (synonym C. linifolia) were obtained from Egypt. The paraquat sensitive biotype was gathered near Alexendria and seeds of the resistant type from the Tahrir irrigation district. They were obtained from Dr. Martin Parham in England. Seeds were germinated in a growth room with a 14 h light period at 25° C. Plants were transferred out of doors 24 h before being sprayed. The phytotoxicity of three herbicides representative of the three different modes of generating active oxygen species known at present. Commercial paraquat (Gramoxone-ICI Plant Protection Ltd) was formulated with 0.1% (w/v) Tween-20 (a non-ionic surfactant) for spraying. The response to the range of 10^-5 M to 10^-2 M paraquat was measured by spraying two plants per concentration to run-off in the early morning. All plants were exposed to sunlight for at least 13 h (1300 μE.m^-2s^-1 photosynthetically active radiation (PAR) at mid day). Commercial acifluorfen (Blazer, Rohm, and Hass, Philadelphia, Pa., USA) to which was added 0.25% Tween-20 was sprayed to run-off. The response to spraying was measured as with paraquat 24 h after spraying. Commercial atrazine (Atranex 50 WP-Agan) was sprayed at various rates in 0.25% Tween 20 to run off. Fully expanded, 8 to 10 cm long leaves from plants in the rosette stage were used in all experiments. Phytotoxicity of acifluorfen and paraquat was measured as CO2 fixation 24 h later as follows: Detached leaves were placed on wet filter paper in a sealed chamber with 5μ Ci^14 C-sodium bicarbonate. Tartaric acid was remotely dripped on the sodium bicarbonate to release ^14 CO2. Leaves were illuminated with […] (PAR) for 30 min. Eighty percent acetone was added and the mixture put under strong light to photobleach pigments and evaporate the acetone. A scintillation mixture of Lumax:xylene (45:55) was added to the leaves and remaining water. The samples were counted and the data expressed as DPM.cm^-2. Area was measured with a planimeter from photocopies of the leaves made prior to photosynthesis measurements. Phytotoxicity of atrazine was measured as the elevated level of malonyldialdehyde in the tissue. Malonyldialdehyde (as measured with thiobarbituric acid according to Dodge and Gillham (Asp. Appl. Biol 11 97 (1986)) is a measurement of lipoxidation of unsaturated fatty acids, and provides an excellent estimation of damage by active oxygen species.

[3] = system: Conyza bonariensis paraquat tolerant biotype; test: as above; assay type: in vivo; settings: tolerant biotype
Experimental: as §1

[4] = system: Conyza bonariensis high herbicide requiring biotype; test: Whole plant spray, visual rating; assay type: in vivo; settings: DDC 0.5% where added, high herbicide requiring biotype; for visual ratings: scored one day after treatment
Text: (§2) Seeds of Conyza bonariensis were germinated and plants cultivated as outlined in Example 1. Other species were germinated in a similar mixture and treated at 10 days.
(§3) The commercial fungicides, maneb [manganese ethylene-bis(dithiocarbamate) (polymeric)] and zineb [zinc ethylene-bis (dithiocarbamate) (polymeric)] were used, they have similar structures and effects as DDC, but are blocked and act as chelate controls […] to clarify that a synergism would be due to the chelating effect of diethyldithiocarbamate. […] They could not chelate copper due to their being blocked.
(§4) ^a visual ratings (scored 1 day after treatment): 0 no damage to
(§5) slight burn; 1 moderate burn (may regenerate); 2 severe burn (will die)
(§6) Similarly, both the paraquat resistant and sensitive biotypes of Conyza bonariensis were treated with two other oxidant generating herbicides. Atrazine (of the triazine group) is the most widely used oxidant generating herbicides in agriculture. We used various dilutions of a commercial wettable powder (Atranex 50WP-Agan Chemicals) to which we added 0.5% DDC. The effects were scored 24 h later. […] We also tested to see whether acifluorfen, a nitro diphenyl ether herbicide would be synergized. It is generally agreed that light and oxygen are required for its action via oxidant damage. We sprayed a commercial formulation of acifluorfen (Blazer, Rohm and Haas) to which were added 0.25% Tween-20 detergent, with and without DDC. The effects were scored 24 h later.

[5] = system: Conyza bonariensis low herbicide requiring biotype; test: Photosynthesis (14CO2 fixation) of leaf discs removed 5 h after spray treatment; assay type: in vivo; settings: foliar, DDC 0.5% where added, leaf discs removed 5 h after treatment, untreated control = 100
Experimental: as §6
^b photosynthesis (^14 CO2 fixation) was used as an
additional measurement of phytotoxicity. Leaf discs were removed 5 h afte
treatment for measurement

[6] = system: bean leaf discs; test: Bean leaf disc bleaching assay; assay type: cell-based; settings: 5 h at 450 μEin.m^-2 s^-1
Experimental: We used this bean leaf disc system to ascertain the potential of chelators to synergize a large variety of phytotoxicants purported to act by generating active oxygen species in the light.
Bean discs were incubated on solutions containing the above mixtures for 5 h at 450 μEin.m^-2 s^-1 and the chlorophyll remaining in the leaves was assayed.

[7] = system: Conyza bonariensis paraquat sensitive (low herbicide requiring) biotype; test: Malonyldialdehyde in tissue (lipoxidation, membrane damage) after spraying; assay type: in vivo; settings: for membrane damage (malonyldialdehyde release): DDC 0.5% where added, low herbicide requiring biotype, untreated control = 100; for malonyldialdehyde in tissue (% untreated control): sensitive biotype
Experimental: as §1
(§7) ^b membrane damage was measured as malonyldialdehyde release
as §6

[8] = system: Conyza bonariensis paraquat tolerant (high herbicide requiring) biotype; test: as above; assay type: in vivo; settings: for membrane damage (malonyldialdehyde release): DDC 0.5% where added, high herbicide requiring biotype, untreated control = 100; for malonyldialdehyde in tissue (% untreated control): tolerant biotype
Experimental: as §1, §7, §6

[9] = system: Conyza bonariensis low herbicide requiring biotype; test: Whole plant spray, visual rating; assay type: in vivo; settings: DDC 0.5% where added, scored one day after treatment
Text: as §2, §3, §4, §5, §6

[10] = system: leaves; test: Blocked chelate controls tested for synergism with paraquat; assay type: in vivo
Text: as §3

[11] = herbicide molar conc. 3.2 × 10^-3
[12] = atrazine 20 μM spray to run off
[13] = atrazine 40 μM spray to run off
[14] = atrazine molar conc. 1.0 × 10^-2
[15] = atrazine molar conc. 1.5 (× 10^-2)
[16] = atrazine molar conc. 2.0 (× 10^-2)
[17] = atrazine molar conc. 3.0 (× 10^-2)
[18] = atrazine molar conc. 4.0 (× 10^-2)
[19] = atrazine molar conc. 5.0 (× 10^-2)
[20] = atrazine 15 μM spray to run off
[21] = atrazine 30 μM spray to run off

In the case of `CCCCCCCCc1ccc(O)c(C(C)=NO)c1` [4-Octyl-2-acetyl-phenol oxime, oxime of 4-octyl-2-acetyl-phenol], the “chlorophyll remaining - % of control” value ([1]; chelator alone 0.125%) is reported as 96 % of control.
With `O=C(O)c1cccc(C(=O)O)n1` [Pyridine-2,6-dicarboxylic acid] the “chlorophyll remaining - % of control” value ([1]; chelator alone 0.005%) was 100 % of control.
`NCCNCCNCCNCCN` [Tetraethylene-pentamine, tetraethylene pentamine] was tested, and the “chlorophyll remaining - % of control” value ([1]; chelator alone 0.025%) was 99 % of control.
`NCCNCCNCCN` [Triethylene-tetramine] was tested, and the “chlorophyll remaining - % of control” value ([1]; chelator alone 0.008%) was 90 % of control.
`O=C(O)c1cc(Oc2ccc(C(F)(F)F)cc2Cl)ccc1[N+](=O)[O-]` [acifluorfen] was tested, and the “% photosynthesis inhibition” value [2, 11] was 72%, the “% photosynthesis inhibition” value ([2]; herbicide molar conc. 3.2 × 10^-4) was 40% and the “% photosynthesis inhibition” value ([2]; herbicide molar conc. 10^-2) was 98%. The “% photosynthesis inhibition” value ([2]; herbicide molar conc. 10^-3) was 58%, the “% photosynthesis inhibition” value ([2]; herbicide molar conc. 10^-4) was 23% and the “% photosynthesis inhibition” value [3, 11] was 67%. For the same molecule, the “% photosynthesis inhibition” value ([3]; herbicide molar conc. 10^-2) was 99%, the “% photosynthesis inhibition” value ([3]; herbicide molar conc. 10^-3) was 21% and the visual rating ([4]; acifluorfen 100 μM spray to runoff, scored 24 h after treatment) was 2.5. For the same molecule, the activity at 3 µM ([5]; acifluorfen 3 μM spray to runoff) was 75%, the activity at 100 µM ([5]; acifluorfen 100 μM spray to runoff) was 10% and the “chlorophyll - % of control” value ([6]; acifluorfen 3 μM, chelator 0.01% w/v where added) was 91 % of control.
`CCNc1nc(Cl)nc(NC(C)C)n1` [atrazine] was tested, and the “membrane damage (malonyldialdehyde release)” value (from here on “membrane damage”) [7, 12] was 130, the “membrane damage” value [7, 13] was 225 and the “malonyldialdehyde in tissue (% untreated control)” value [7, 14] was 100 % untreated control. The “malonyldialdehyde in tissue (% untreated control)” value [7, 15] was 135 % untreated control, the “malonyldialdehyde in tissue (% untreated control)” value [7, 16] was 130 % untreated control and the “malonyldialdehyde in tissue (% untreated control)” value [7, 17] was 155 % untreated control. The “malonyldialdehyde in tissue (% untreated control)” value [7, 18] was 225 % untreated control, the “malonyldialdehyde in tissue (% untreated control)” value [7, 19] was 320 % untreated control and the “membrane damage” value [8, 12] was 100. The “membrane damage” value [8, 13] was 100, the “malonyldialdehyde in tissue (% untreated control)” value [8, 14] was 100 % untreated control and the “malonyldialdehyde in tissue (% untreated control)” value [8, 15] was 100 % untreated control. For the same molecule, the “malonyldialdehyde in tissue (% untreated control)” value [8, 16] was 100 % untreated control, the “malonyldialdehyde in tissue (% untreated control)” value [8, 17] was 100 % untreated control and the “malonyldialdehyde in tissue (% untreated control)” value [8, 18] was 100 % untreated control. The “malonyldialdehyde in tissue (% untreated control)” value [8, 19] was 125 % untreated control, the “% of control chlorophyll” value ([1]; atrazine 3 × 10^-6 M, 3 µM) was 95 % of control and the “% of control chlorophyll” value ([1]; atrazine 10^-5, 10 µM) was 92 % of control. It also gave a visual ratings [4, 20] of 1.7, a visual ratings [4, 21] of 1.7 and a visual ratings [9, 20] of 2.1. The visual ratings [9, 21] was 2.3.
In the case of `CCCCC(CC)COP(=O)(O)OCC(CC)CCCC` (stereo not shown) [di-2-ethyl-hexyl-phosphoric acid, Di-2-ethyl-hexyl phosphoric acid], the “chlorophyll remaining - % of control” value ([1]; chelator alone 0.001%) is reported as 98 % of control, the “chlorophyll - % of control” value ([6]; acifluorfen 0 μM, chelator alone 0.01% w/v) is reported as 98 % of control and the “chlorophyll - % of control” value ([6]; acifluorfen 0 μM, chelator alone 0.02% w/v) is reported as 91 % of control. The “chlorophyll - % of control” value ([6]; paraquat 0 μM, chelator alone 0.01% w/v) was 98 % of control.
“manganese ethylene-bis(dithiocarbamate) (polymeric) [maneb]” was tested, and the “synergistic effects with paraquat” value [10] was “Neither maneb nor zineb had synergistic effects with paraquat”.
